In brackets after ≈: the same amount, converted by molar mass. Like-named read-outs stand apart in the source and are kept apart here.

In assay [1] the test system is Botrtyis cinerea (Bc). The experiment in a line: In vitro pathogen growth inhibition assay, Bc. It counts as cell-based. The settings on record: 48 h, ≥90% inhibition; 48 hours vs 2% DMSO control; read-out: Compound Concentration (ppm) sufficient for ≥90% inhibition of growth, Bc. The method, boiled down:
(§1)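 Value reported is the compound concentration reaching ≥90% growth inhibition, from OD readings at 24 and 48 h after blank subtraction, confirmed visually. Inoculum was spores diluted in 17% V8 medium, except Rs, using 1.5 mm mycelial plugs in ¼ PDB; actual compound concentration corrected via OD600.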

The subject of assay [2] is Collectotrichum graminicola (Cg). The experiment in a line: In vitro pathogen growth inhibition assay, Cg. The settings on record: 48 h, ≥90% inhibition; 48 hours vs 2% DMSO control; read-out: Compound Concentration (ppm) sufficient for ≥90% inhibition of growth, Cg. Type of assay: cell-based. The essentials: as §1
In assay [3] the test system is Diplodia maydis (Dm). The assay can be described thus: In vitro pathogen growth inhibition assay, Dm. It counts as cell-based. The settings on record: Stenocarpella maydis, 48 h, ≥90% inhibition; 48 hours vs 2% DMSO control; read-out: Compound Concentration (ppm) sufficient for ≥90% inhibition of growth, Dm. The method, boiled down:
as §1

Assay [4] relates to Fusarium moniliforme (Fm). The assay can be described thus: In vitro pathogen growth inhibition assay, Fm. Type of assay: cell-based. The settings on record: Fusarium verticillioides. The method, boiled down: as §1
For assay [5], the system named is Fusarium virguliforme (Fv). The experiment in a line: In vitro pathogen growth inhibition assay, Fv. It counts as cell-based. The method, boiled down: as §1
The subject of assay [6] is Phytophthora capsici (Pc). The experiment in a line: In vitro pathogen growth inhibition assay, Pc. It counts as cell-based. The settings on record: 48 h, ≥90% inhibition, 48 hours vs 2% DMSO control, read-out: Compound Concentration (ppm) sufficient for ≥90% inhibition of growth, Pc. The essentials: as §1
The test system of assay [7] is Rhizoctonia solani (Rs). The assay can be described thus: In vitro pathogen growth inhibition assay, Rs (mycelial plugs). It counts as cell-based. The settings on record: Rhizoctonia solani, 48 h, mycelial plugs. The method, boiled down:
as §1

The test system of assay [8] is Septoria tritici (St). The assay can be described thus: In vitro pathogen growth inhibition assay, St. It counts as cell-based. The method, boiled down: as §1
Assay [9] relates to Blumeria graminis f. sp. hordei. The assay can be described thus: Foliar protection test for barley powdery mildew control. The settings on record: foliar spray on Hordeum vulgare cv. Perry, inoculated 24 hours after treatment, evaluated 7 days later. Type of assay: in vivo. The essentials:
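Protective foliar test: compound atomized onto both leaf surfaces of 6-day-old Hordeum vulgare cv. Perry, followed after 24 h by spore-cloud inoculation from colonized untreated plants. Disease rated on leaves 7 days on, plants held at 20 to 22° C and 70% RH.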

Assay [10] has as its system Sphaerotheca fuliginea. The experiment in a line: Foliar protection for cucumber powdery mildew control. The settings on record: foliar spray on Cucumis sativus cv. Straight Eight, inoculated 24 hours after treatment, evaluated 7 days later. It counts as in vivo. The essentials:
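Protective foliar spray on 10-day-old Straight Eight cucumbers, with S. fuliginea spores dusted from infected stock plants 24 h after treatment. Disease developed at 23–27 °C, 60% RH and a 16 h photoperiod. Leaves were rated for mildew growth after 7 days; test rates 10 ppm or below.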

Assay [11] relates to Mycosphaerella graminicola (synthetic Septoria tritici). The experiment in a line: Foliar protection test for wheat septoria leaf blotch control. Type of assay: in vivo. The settings on record: foliar spray on Triticum aestivum cv. WinterHawk, inoculated 1 hour after treatment, evaluated 16 days later.
Assay [12] relates to Fusarium graminearum. Type of assay: in vivo. The settings on record: spray on flowering Triticum aestivum cv. Samson, inoculated 24 hours after treatment, evaluated 14 days later.
The test system of assay [13] is Puccinia triticina. The experiment in a line: Foliar protection test for wheat leaf rust control. Type of assay: in vivo. The settings on record: foliar application to wheat (Triticum aestivum cv. Winterhawk), evaluated 10 days later.
Assay [14] relates to Phakopsora pachyrhizi. The assay can be described thus: Foliar protection test for Asian soybean rust control. The settings on record: foliar application to soybean (Glycine max AG4832), percent disease area evaluated 14 days later. Type of assay: in vivo.
Assay [15] has as its system Fusarium graminearum. Type of assay: in vivo. The settings on record: corn from treated seeds, 0.025 mg/seed, F. graminearum inoculated, Table 12.
Assay [16] deals with Blumeria graminis f. sp. hordei. The experiment in a line: Early foliar disease control via seed treatment (barley powdery mildew). It counts as in vivo. The settings on record: seed treatment rate 0.025 mg/seed; barley inoculated 7 days after planting, evaluated 7 days later. The protocol: Barley seeds (Hordeum vulgare cv. Perry or Conlon) were treated with a test compound dissolved in pure acetone, in which the acetone solution (1 mL) was used per 50 seeds in glass jars in a fume hood. The seeds were swirled in the glass jars by hand until no obvious presence of acetone remained and the seeds were mostly dry. Plants were grown for 7 days in 2-inch square pots containing Metromix 200 medium amended with fertilizer. […] After inoculation with the pathogen of Blumeria graminis f. sp. hordei, plants were kept at conditions of 20 to 22° C., 200 uM of light, 70% humidity to facilitate infection and disease development. At 7 days after planting (1st true leaf fully expanded), the plants were moved to the cooler chamber and inoculated by shaking well-colonized, untreated stock plants above the treated material. […] Efficacy was evaluated in 7 days later by examining leaves for colonization and growth of powdery mildew. Each side of each leaf was assigned a severity rating of 0, 1, 5, 10, 25, 50, 75, or 100 percent diseased area. Table 14 lists the results of barley powdery mildew control upon seed treatment with test compounds.

Assay [17] concerns Rhizoctonia solani. The experiment in a line: Seed protectant for soybean seedling disease, R. solani. The settings on record: soybean from treated seeds, 0.025 mg/seed, R. solani inoculated. It counts as in vivo. The protocol:
(§2) The pathogen of Rhizoctonia solani inoculum was grown on sterile sorghum; and the pathogen of Pythium ultimum inoculum was grown on white millet.
(§3) Soybean seeds (Glycine max cv. AG4832) were planted in 2.5-inch square pots containing Berger BM2 germination mix amended with fertilizer (e.g., 14-14-14). Pots with soil were inoculated with the pathogen of R. solani or P. ultimum at time of planting. A hole was pressed into the soil to a depth of about 2 to 3 cm; the inoculum was added to the hole, followed by the seed which was then covered with soil. Two seeds per pot were planted. Plants were grown in a growth chamber at conditions of 20 to 24° C., 14 hour light cycle, 500 uM of light, and 65% humidity. The pots inoculated with P. ultimum were sub-irrigated every day; and the pots inoculated with R. solani were sub-irrigated every other day.
(§4) Seedling emergence was captured at 7 and 14 days after seeding. At 14 days, the top of the plant was removed and fresh weight was recorded. The plant weights from the seeds treated with test compounds (e.g., in formulations) were compared to the ones either from the inoculated non-treated seeds or non-inoculated non-treated seeds. Table 10 lists the results of the R. solani control in soybean upon seed treatment with test compounds, and Table 11 lists the results of the P. ultimum control in soybean upon seed treatment with test compounds, respectively.

The test system of assay [18] is Pythium ultimum. The experiment in a line: Seed protectant for soybean seedling disease, P. ultimum. Type of assay: in vivo. The settings on record: soybean from treated seeds, 0.025 mg/seed, P. ultimum inoculated. How it is done:
as §2, §3, §4

The mark [19] stands for this setting: percentage of non-inoculated non-treated controls.

In the case of `COc1ccc(F)cc1[C@H](Cn1c(=O)n(C(C)(C)C(=O)NC(C)C)c(=O)c2c(C)c(-n3nccn3)sc21)OC(C)C` [Compound I-020, (R)-2-(1-(2-(5-fluoro-2-methoxyphenyl)-2-isopropoxyethyl)-5-methyl-2,4-dioxo-6-(2H-1,2,3-triazol-2-yl)-1,4-dihydrothieno[2,3-d]pyrimidin-3 (2H)-yl)-N-isopropyl-2-methylpropanamide], the IC90 in [1] was no less than 0.08 µg/mL; in assay [2], 0.08 µg/mL (≈ 0.136 µM); in assay [3] it was 0.08 µg/mL (≈ 0.136 µM); in [4] (≥90% inhibition, 48 hours vs 2% DMSO control, read-out: Compound Concentration (ppm) sufficient for ≥90% inhibition of growth, Fm), 0.08 µg/mL (≈ 0.136 µM); in assay [5] (≥90% inhibition, 48 hours vs 2% DMSO control, read-out: Compound Concentration (ppm) sufficient for ≥90% inhibition of growth, Fv), 0.4 µg/mL (≈ 0.682 µM); in [6], greater than 50 µg/mL. Besides, the IC90 was 0.08 µg/mL (≈ 0.136 µM) in assay [7] (≥90% inhibition, 48 hours vs 2% DMSO control, read-out: Compound Concentration (ppm) sufficient for ≥90% inhibition of growth, Rs) and no less than 2 µg/mL in assay [8] (Zymoseptoria tritici, 48 h, ≥90% inhibition, 48 hours vs 2% DMSO control, read-out: Compound Concentration (ppm) sufficient for ≥90% inhibition of growth, St). Also, the “Barley Powdery Mildew Control at a compound concentration of 10 ppm or lower” value in assay [9] was “AA (≥85% control of barley powdery mildew)”. In addition, in assay [10], the “Cucumber Powdery Mildew Control at a compound concentration of 10 ppm or lower” value is reported as “AA (≥85% control of cucumber powdery mildew)”. The “Septoria Leaf Blotch Control at a compound concentration of 25 ppm or lower” value in [11] is reported as “B (from 50 to 69% control of wheat septoria leaf blotch)”. Moreover, in assay [12], the “Wheat Fusarium Head Blight Control at a compound concentration of 25 ppm or lower” value is given as “B (from 50 to 69% control of wheat fusarium head blight)”. For the same molecule, the “Wheat Leaf Rust Control at a compound concentration of 10 ppm or lower” value in [13] is given as “B (from 50 to 69% control of wheat leaf rust)”. Further, the “Asian Soybean Rust Control at a compound concentration of 25 ppm or lower” value in assay [14] was “B (from 50 to 69% control of Asian soybean rust)”. For the same molecule, the “Plant Height” value in assay [15] is recorded as 40.53 cm. In addition, the “Barley Powdery Mildew Reduction (%)” value in assay [16] is on record as 91%.
`CCOC(=O)c1sc2c(c1C)c(=O)n(C(C)(C)C(=O)NC(C)C)c(=O)n2C[C@H](OCCC#N)c1cc(F)ccc1OC` [Compound I-181, (R)-ethyl-1-(2-(2-cyanoethoxy)-2-(5-fluoro-2-methoxyphenyl)ethyl)-3-(1-(isopropylamino)-2-methyl-1-oxopropan-2-yl)-5-methyl-2,4-dioxo-1,2,3,4-tetrahydrothieno[2,3-d]pyrimidine-6-carboxylate]: the IC90 worked out at 0.08 µg/mL (≈ 0.133 µM) in assay [4] (≥90% growth inhibition, 48 hours, vs 2% DMSO control, read-out: Compound Concentration (ppm) sufficient for ≥90% inhibition of Fm); 0.4 µg/mL (≈ 0.664 µM) in [5] (≥90% growth inhibition, 48 hours, vs 2% DMSO control, read-out: Compound Concentration (ppm) sufficient for ≥90% inhibition of Fv); 0.08 µg/mL (≈ 0.133 µM) in assay [7] (≥90% growth inhibition, 48 hours, vs 2% DMSO control, read-out: Compound Concentration (ppm) sufficient for ≥90% inhibition of Rs). In [8] (≥90% growth inhibition, 48 hours, vs 2% DMSO control), the “Compound Concentration (ppm) sufficient for ≥90% inhibition of St” value is given as no less than 10.0 ppm. In assay [9], the “Barley Powdery Mildew Control at a compound concentration of 10 ppm or lower” value was “AA (≥85% control of barley powdery mildew)”. The “Cucumber Powdery Mildew Control at a compound concentration of 10 ppm or lower” value in assay [10] is listed as “AA (≥85% control of cucumber powdery mildew)”. In assay [11], the “Septoria Leaf Blotch Control at a compound concentration of 25 ppm or lower” value is “B (from 50 to 69% control of wheat septoria leaf blotch)”. Moreover, the “Wheat Fusarium Head Blight Control at a compound concentration of 25 ppm or lower” value in [12] is listed as “B (from 50 to 69% control of wheat fusarium head blight)”. Besides, the “Wheat Leaf Rust Control at a compound concentration of 10 ppm or lower” value in assay [13] is on record as “AA (≥85% control of wheat leaf rust)”. In assay [14], the “Asian Soybean Rust Control at a compound concentration of 25 ppm or lower” value is recorded as “B (from 50 to 69% control of Asian soybean rust)”. For the same molecule, the “Plant Weight” value in assay [17] (fresh weight at 14 days) came to 3.16 g; in [18] (fresh weight at 14 days), 4.73 g. Further, the “Improvement in plant weight” value in assay [17] (setting [19]) came to 39.4%; in [18] (setting [19]), 76%. In addition, in [15], the “Plant Height” value was 47.63 cm. Moreover, the “Barley Powdery Mildew Reduction (%)” value in assay [16] was 57%.

The values are drawn from patent US10941157B2, “Pesticidal compositions and uses thereof” (Gilead Apollo, LLC, priority 2015, dated 2021).
